Results taken from patent US10450327B2, “Epidithiodioxopiperazine compound or its derivatives, and the use thereof” (priority 2011, dated 2019).

Experiments:
PrxII knocked down HAECs = assay: Intracellular hydrogen peroxide (DCF fluorescence), PrxII knocked down HAECs; assay type: cell-based, human
Procedure: First, the ability of GT to eliminate intracellular hydrogen peroxide in PrxII knocked down HASMCs and HAECs was tested. The cellular hydrogen peroxide production was monitored using an oxidant-sensitive fluorescence dye (2′,7′-dihydro-chlorofluorescein diacetate, H2DCF-DA).

HAECs = assay type: cell-based, human; details: up to 50 nM (100 nM for A4, A7, A9)
Procedure: For cell proliferation assay, HAECs were divided at a concentration of 4000 cells/well in a final volume of 100 μl onto a 96-well plate including a siRNA-transfection reagent mixture. After siRNA-transfected for 24 hours, the cells were serum-starved for 18 hours, and then placed in an EBM-2 basal medium supplemented with VEGF-A165 (25 ng/ml, Cat no. 293-VE, R&D systems) for additional 24 hours. The extent of cell proliferation was measured using a WST-1 cell proliferation assay kit (Roche Diagnostics, USA), and the number of cells was expressed as absorbance at 450 nm, which was averaged from 3 wells after subtracting the turbidity at 600 nm.
The cell migration assay was performed in a 24-well Transwell culture chamber (Costar; 8-μm pore size). The bottom of the filter was coated with gelatin B (1 mg/ml) and air-dried for 1 hour. HAECs (6×10^3) were added to upper chambers including siRNA-transfection complexes. After 24 hours, the siRNA-transfected HAECs were serum-starved overnight. A solution of VEGF-A (25 ng/ml) was prepared in a basal medium including 0.5% bovine serum albumin (BSA), and added to bottom chambers. The upper chamber wells were each filled with a basal medium including 0.5% BSA. The Transwell chamber was incubated for 8 hours under the condition of 37° C./5% carbon dioxide. After the incubation, the non-migrated cells at the top of the filter were removed, and the cells that migrated onto the bottom of filter were fixed and stained with 0.6% hematoxylin and 0.5% eosin. The stained cells were photographed and counted. The number of migrating cells was averaged from 3 wells.

[1] = system: balloon-injured rat carotid artery; assay: Balloon-injury model of rat carotid artery; assay type: in vivo
Procedure: Animal experiments were performed in compliance with the guidelines of Institutional Animal Care and Use Committee (IACUC) of the Ewha Womans University. Balloon injury was created using an infiltrated 2 F Fogarty balloon catheter in the left common carotid artery as follows: after the ten-week-old male Sprague-Dawley rats were anaesthetized by isoflurane gas (N2O:O2/70%:30%) inhalation, the left external carotid artery was exposed, and its branches were electrocoagulated. A catheter was pushed 1 cm in through the transverse arteriotomy of the external carotid artery, and the endothelial denudation was achieved by three passes along the common carotid artery. After the catheter was removed, the punched area was sealed and the clapped common carotid artery was opened for resuming the blood flow. Unless otherwise stated, the rats were recovered in a cage for 10 days, and subjected to histological and immunological analyses.
Rats were anesthetized, and the common carotid artery was excised after transcardiac perfusion-fixation with a heparinized saline solution containing 3.7% formaldehyde. The vessels were paraffin embedded and sectioned using a rotary microtome (Leica RM2255). Two serial tissue sections (4 μm in thickness) were obtained from the middle area of common carotid arteries, and stained with haematoxylin and eosin (HE). The luminal, internal elastic laminal, and external elastic laminal areas were measured using NIH Image v1.62. The intimal and medial areas were determined by subtracting the luminal area from the internal elastic area and subtracting the internal elastic area from the external elastic area. The values from the two serial sections for each rat were averaged for analysis.
For the in vivo injection of siRNA, a siRNA mixture specific to rat PrxII (200 nM) was premixed with a siPORT™ NeoFX™ reagent according to the instructions of the manufacturer (Ambion). Immediately after the balloon injury, the siRNA-injected mixture (200 μL) was injected through a catheter after briefly washed with Opti-MEM. After the incubation for 15 minutes, the blood flow was resumed. A siGLO-Red (Dharmacon), which is fluorescent dye-conjugated control siRNA, was used for optimizing in vivo injection efficiency. Similarly, the ETP compound (200 nM in DMSO) was injected through a catheter and incubated for 30 minutes.
Immunohistochemistry for the overoxidized 2-Cys Prxs was performed on the paraffin sections using an anti-Prx-SO2/3 antibody (1:1000 dilution). Briefly, the sections were de-waxed in xylene and rehydrated in ethanol, and subsequently the antigen retrieval was performed by boiling in a citric buffer solution (pH 6.0). After that, the sections were incubated with a primary antibody for 48 hours at 4° C. After washing three times with a phosphatebuffered saline solution, the sections were incubated with a peroxidase-conjugated secondary antibody and stained with a 3′,3′-diaminobenzidine (DAB) substrate solution. For negative staining, the Prx-502/3 antibody was blocked with the corresponding antigenic peptide (DFTFVC(SO2/3)PTEI). For indirect immunofluorescence staining, the paraffin sections were blocked with 5% normal rabbit serum (Vector Laboratories) in PBST (a PBS solution of 0.3% Triton X-100) for 1 hour at room temperature. The sections were then incubated overnight at 4° C. with the […] against rat smooth muscle α-actin (1:300 dilution) and rat CD31 (PECAM-1, 1:200 dilution). The nuclei were labeled with DAPI. After several PBST washes, the samples were incubated for 2 hours at room temperature with Alexa Fluor 568-conjugated donkey anti-mouse and Alexa Fluor 488-conjugated donkey anti-rabbit IgG antibodies. The fluorescence images were recorded on three random fields per tissue section at a screen magnification of 100× using a LSM 510 Meta confocal microscope equipped with argon and helium-neon lasers.
The paraffin sections were incubated for 10 minutes in PBS containing 0.1% Triton X-100. […]

[2] = system: balloon injured carotid arteries; assay: Vascular permeability test (Evans blue inflow); details: rat, in vivo
Procedure: Mice were injected intravenously with 100 μl of 5% Evans blue for 30 minutes and then perfused with PBS for 5 minutes. The common carotid arteries were removed from both uninjured collateral and injured ipsilateral ones. The result was dissected, opened longitudinally, and examined on a phase contrast microscope with a magnification of 20×. For quantification, the Evans blue inflowed into the blood vessel was extracted by being placed in formamide at 55° C. overnight and centrifuged for 10 minutes at 12,000 rpm. The supernatants were collected and the absorbance was measured at 620 nm. The background value of the Evans blue dye was measured at 740 nm and substracted from the values in carotid arteries. For VEGFR2 inhibition, SU5416 (20 mg/kg) was injected intraperitoneally for 3 times (Days −1, 1, and 3) before and after the balloon injury. Control injection was made of 200 μl PBS including a vehicle (5% DMSO).
The permeability of the repaired endothelium was examined by Evans blue inflow.

CN1C(=O)[C@]23CC4=CC=C[C@H](O)[C@H]4N2C(=O)[C@@]1(CO)SS3 [gliotoxin]
basal level of intracellular hydrogen peroxide enhanced by PrxII knockdown (PrxII knocked down HAECs): completely eliminated
VEGF-induced proliferation and chemotactic transmigration of HAECs, impaired by PrxII knockdown (HAECs): enhancement
endothelial repair / reendothelialization (CD31 immunofluorescence) ([1]; local administration after balloon injury): endothelium monolayer in contact with lumen was formed
intimal hyperplasia (ratio of intima versus media, HE staining) ([1]; local administration to the lumen through catheter, 30 minutes, ETP derivatives 200 nM, 10 days recovery): notably suppressed
cell death by TUNEL staining ([1]; nanomolar range, local administration): did not induce cell death
luminal surface endothelial cells by scanning electron microscopy ([1]; rat, in vivo): spread and formed a uniform layer with tight junction
overoxidation of 2-Cys-Prx (Prx-SO2/3 immunohistochemistry) versus control group ([1]; rat, in vivo): no significant differences
Evans blue inflow compared to DMSO-treated injured carotid arteries [2]: approximately two-third reduction
